Source: ChEMBL document CHEMBL1201862, “PubChem BioAssay data set” (2004)
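48-hour exposure; five concentrations; linearly interpolated endpoints. The concentration for 50% growth inhibition is given as GI50.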 The source made the active and inactive calls. Rule as the data show it: active = GI50 up to about 1.1 µM and inactive = higher.

Legend:
Test in all cases: NCI anticancer screen, dose series, 48 h
A498 = tested on: A498
ACHN = tested on: ACHN
CCRF-CEM = tested on: CCRF-CEM
HCC 2998 = tested on: HCC 2998
HCT-15 = tested on: HCT-15
HT-29 = tested on: HT-29
M14 = tested on: M14
MOLT-4 = tested on: MOLT-4
NCI-H226 = tested on: NCI-H226
NCI-H23 = tested on: NCI-H23
OVCAR-5 = tested on: OVCAR-5
RPMI-8226 = tested on: RPMI-8226
SF-268 = tested on: SF-268
SF-539 = tested on: SF-539
SK-MEL-28 = tested on: SK-MEL-28
SN12C = tested on: SN12C
UACC-257 = tested on: UACC-257
SR = tested on: SR

| Compound | GI50 (A498) | GI50 (ACHN) | GI50 (CCRF-CEM) | GI50 (HCC 2998) | GI50 (HCT-15) | GI50 (HT-29) | GI50 (M14) | GI50 (MOLT-4) | GI50 (NCI-H226) | GI50 (NCI-H23) | GI50 (OVCAR-5) | GI50 (RPMI-8226) | GI50 (SF-268) | GI50 (SF-539) | GI50 (SK-MEL-28) | GI50 (SN12C) | GI50 (UACC-257) | GI50 (SR) |
| --- | --- | --- | --- | --- | --- | --- | --- | --- | --- | --- | --- | --- | --- | --- | --- | --- | --- | --- |
| N#C/C(=C\c1ccc(CP(=O)(O)O)cc1)C(N)=O | > 100 µM (inactive) | > 100 µM (inactive) | > 100 µM (inactive) | > 100 µM (inactive) | > 100 µM | > 100 µM (inactive) | > 100 µM (inactive) | > 100 µM (inactive) | > 100 µM (inactive) | > 100 µM (inactive) | > 100 µM (inactive) | > 100 µM (inactive) | > 100 µM (inactive) | > 100 µM (inactive) | > 100 µM (inactive) | > 100 µM (inactive) | > 100 µM (inactive) |  |
| CCOC(=O)c1ccc(/N=N\c2ccc(N(CCC#N)CCC#N)cc2C)cc1 | > 100 µM (inactive) | > 100 µM (inactive) | > 100 µM (inactive) | > 100 µM (inactive) | > 100 µM | > 100 µM (inactive) | > 100 µM (inactive) | > 100 µM (inactive) | > 100 µM (inactive) | 95.1 µM (inactive) | > 100 µM (inactive) | > 100 µM (inactive) |  | 72.9 µM (inactive) |  | > 100 µM (inactive) | > 100 µM (inactive) |  |
| CC1=NN(c2ccccc2)C(=O)C1/N=N/c1ccc(Br)c(C)c1 (stereo not given) | > 100 µM (inactive) | > 100 µM (inactive) | 55.7 µM (inactive) | > 100 µM (inactive) | > 100 µM | > 100 µM (inactive) | > 100 µM (inactive) | 71.3 µM (inactive) | > 100 µM (inactive) | > 100 µM (inactive) | > 100 µM (inactive) | > 100 µM (inactive) | > 10 µM (inactive) | > 100 µM (inactive) | > 100 µM (inactive) | > 100 µM (inactive) | > 100 µM (inactive) |  |
| O=C1NC2C(CCO)CC=C[C@H]2c2cc3c(cc21)OCO3 (stereo not given in full) |  | > 100 µM (inactive) | > 100 µM (inactive) | > 10 µM (inactive) | > 100 µM | > 100 µM (inactive) | > 100 µM (inactive) | > 100 µM (inactive) | 75.3 µM (inactive) | > 100 µM (inactive) |  | > 100 µM (inactive) | > 100 µM (inactive) | > 100 µM (inactive) | > 100 µM (inactive) | > 100 µM (inactive) | > 100 µM (inactive) | > 100 µM (inactive) |
| NC1=NC2=C(CCCC2)C(c2cccs2)S1 (stereo not given) | 72.6 µM (inactive) | > 100 µM (inactive) | 55 µM (inactive) | > 100 µM (inactive) | > 100 µM | > 100 µM (inactive) | > 100 µM (inactive) | 36.8 µM (inactive) |  | > 100 µM (inactive) | > 100 µM (inactive) | 61.7 µM (inactive) | 95.1 µM (inactive) | > 100 µM (inactive) | > 100 µM (inactive) | > 100 µM (inactive) | 49.7 µM (inactive) |  |
| COc1cc(C)c(O)c(C(=O)O)c1 | > 100 µM (inactive) | > 100 µM (inactive) | > 100 µM (inactive) | > 100 µM (inactive) | > 100 µM | > 100 µM (inactive) | > 100 µM (inactive) | > 100 µM (inactive) | > 100 µM (inactive) | > 100 µM (inactive) | > 100 µM (inactive) |  | > 100 µM (inactive) |  | > 100 µM (inactive) | > 100 µM (inactive) | > 100 µM (inactive) | > 100 µM (inactive) |
| CC(C)(C)C1CCC2c3c([nH]c4ncccc34)C3C(=O)N(c4ccccc4)C(=O)C3C2C1 (stereo not given) |  | > 100 µM (inactive) | 49.7 µM (inactive) | > 100 µM (inactive) | > 100 µM | > 100 µM (inactive) | > 100 µM (inactive) | > 100 µM (inactive) | > 100 µM (inactive) | > 100 µM (inactive) | > 100 µM (inactive) | > 100 µM (inactive) | > 100 µM (inactive) | > 100 µM (inactive) | > 100 µM (inactive) | 88.1 µM (inactive) | > 100 µM (inactive) | 36.1 µM (inactive) |
| O=C(NCCCN1CCN(CCCNC(=O)Nc2cc(Cl)ccc2Cl)CC1)Nc1cc(Cl)ccc1Cl |  | > 100 µM (inactive) | > 100 µM (inactive) |  | 65.3 µM | 51.4 µM (inactive) | 27.4 µM (inactive) | > 100 µM (inactive) | > 100 µM (inactive) | 87.7 µM (inactive) | > 100 µM (inactive) | 80 µM (inactive) | 87.3 µM (inactive) | 44.5 µM (inactive) | 60.3 µM (inactive) | 83 µM (inactive) | 16.5 µM (inactive) |  |
| NC1=NCCC1(c1ccccc1)c1ccccn1 (stereo not given) | > 100 µM (inactive) | > 100 µM (inactive) | > 100 µM (inactive) | > 100 µM (inactive) | > 100 µM | > 100 µM (inactive) | > 100 µM (inactive) | > 100 µM (inactive) | > 100 µM (inactive) | > 100 µM (inactive) | > 100 µM (inactive) | > 100 µM (inactive) | > 100 µM (inactive) | > 100 µM (inactive) | > 100 µM (inactive) | > 100 µM (inactive) | > 100 µM (inactive) |  |
| Cc1cccc(NC2=NC(=O)C(CC(=O)Nc3ccc(Cl)cc3C)S2)c1 (stereo not given) | 53.8 µM (inactive) | > 100 µM (inactive) | > 100 µM (inactive) | > 100 µM (inactive) | > 100 µM | > 100 µM (inactive) | > 100 µM (inactive) | > 100 µM (inactive) | > 100 µM (inactive) | > 100 µM (inactive) | > 100 µM (inactive) | > 100 µM (inactive) | > 100 µM (inactive) | > 100 µM (inactive) | > 100 µM (inactive) | > 100 µM (inactive) | > 100 µM (inactive) |  |
| CCC(O)CCCCCCCCCCCCCCC(=O)O (stereo not given) | > 100 µM (inactive) | > 100 µM (inactive) | > 100 µM (inactive) |  |  | 40.8 µM (inactive) | > 100 µM (inactive) | 44.3 µM (inactive) | > 100 µM (inactive) | > 100 µM (inactive) | > 100 µM (inactive) | 66.8 µM (inactive) | > 100 µM (inactive) | > 100 µM (inactive) | > 100 µM (inactive) | > 100 µM (inactive) | > 100 µM (inactive) | 49.9 µM (inactive) |
| CC1=C(c2cc(C(=O)Nc3ccc(Cl)cc3)nc(S)n2)Sc2ccccc2N1 | > 100 µM (inactive) | > 100 µM (inactive) | > 100 µM (inactive) | > 100 µM (inactive) | > 100 µM | > 100 µM (inactive) | > 100 µM (inactive) |  |  | > 100 µM (inactive) | > 100 µM (inactive) |  | > 100 µM (inactive) | > 100 µM (inactive) | > 100 µM (inactive) | > 100 µM (inactive) | > 100 µM (inactive) |  |
| COc1ccc([C@@H]2C[C@@H]3C(=O)OC(=O)[C@@H]3c3c2c2ccccc2n3C)cc1 | > 100 µM (inactive) |  | > 100 µM (inactive) | > 100 µM (inactive) |  | > 100 µM (inactive) | > 100 µM (inactive) | > 100 µM (inactive) | > 100 µM (inactive) | > 100 µM (inactive) |  | > 100 µM (inactive) | > 100 µM (inactive) | > 100 µM (inactive) | > 100 µM (inactive) | > 100 µM (inactive) | > 100 µM (inactive) | > 100 µM (inactive) |
| Nc1c(-c2ccc(Cl)cc2)[n+]([O-])c2ccccc2[n+]1[O-] | 95.3 µM (inactive) | 57.1 µM (inactive) | 54.5 µM (inactive) | 49.9 µM (inactive) | 76.4 µM | > 100 µM (inactive) | > 100 µM (inactive) | 27.3 µM (inactive) | 14.5 µM (inactive) | 54.6 µM (inactive) | > 100 µM (inactive) | 34.5 µM (inactive) | 59.8 µM (inactive) | > 100 µM (inactive) | 76.9 µM (inactive) | 95.1 µM (inactive) | 58.5 µM (inactive) |  |
| COC(=O)C(C#N)=C1c2ccccc2Oc2ccccc21 | > 100 µM (inactive) | 66.7 µM (inactive) | 32.4 µM (inactive) | 98.9 µM (inactive) | > 100 µM | 39.3 µM (inactive) | 53.8 µM (inactive) | 35.4 µM (inactive) | 65.5 µM (inactive) | 56.9 µM (inactive) | > 100 µM (inactive) | 18.8 µM (inactive) | 63 µM (inactive) | 75.7 µM (inactive) | 56.6 µM (inactive) | 38.9 µM (inactive) | > 100 µM (inactive) |  |
| Cc1cc(NS(=O)(=O)c2ccc(NC(=O)c3cccc4c(Nc5ccc(S(=O)(=O)Nc6cc(C)on6)cc5)c5ccc(Cl)cc5nc34)cc2)no1 | 55 µM (inactive) | 85.7 µM (inactive) | 41.9 µM (inactive) | 56 µM (inactive) | 45.9 µM | > 100 µM (inactive) | 32.1 µM (inactive) | 56 µM (inactive) |  | 45.1 µM (inactive) | > 100 µM (inactive) | 47.1 µM (inactive) | 34.5 µM (inactive) | 37.7 µM (inactive) | 41 µM (inactive) | 51.2 µM (inactive) | > 100 µM (inactive) |  |
| CCCCCCCCCCCCCC/C(C(=O)OC)=C(/O)C(=O)OCC | 33.2 µM (inactive) | 28.9 µM (inactive) | 42.5 µM (inactive) | 19.9 µM (inactive) | 19.7 µM | 36.4 µM (inactive) | 20.2 µM (inactive) | 37.6 µM (inactive) | > 100 µM (inactive) | > 100 µM (inactive) | 27 µM (inactive) | > 100 µM (inactive) | 25.8 µM (inactive) | > 100 µM (inactive) | 24 µM (inactive) | > 100 µM (inactive) | 63.5 µM (inactive) |  |
